{
  "source": "patent US20160303264A1",
  "about": "“LIPOSOMES USEFUL FOR NON-INVASIVE IMAGING AND DRUG DELIVERY” (MERRIMACK PHARMACEUTICALS, INC., priority 2013, published 2016)",
  "origin": "cited, not measured here",
  "conditions": "human studies",
  "data": [
    {"compound": "CN=C([S-])N/N=C(C)/C(C)=N/NC([S-])=NC.[64Cu+2]", "note": "[^64Cu-ATSM]", "values": [
      {"measurement": "adverse events or clinically detectable pharmacologic effects", "result": "No adverse events or clinically detectable pharmacologic effects"},
      {"measurement": "changes in vital signs or laboratory test results after injection", "result": "no clinically significant changes"}
    ]}
  ]
}
